From US20240139205A1, “MODULATORS OF ARALAR FOR TREATING NEUROLOGICAL DISORDERS” (Universite de Lausanne, priority 2020, published 2024)

Legend:
Cyfip^85.1/+ flies [1] = test: competition for food assay (total number of social events) in Cyfip haploinsufficient flies; assay type: in vivo, Drosophila; conditions: for number of social events: 1 mM in the food, 1 or 2 days; for social behavior deficit (social events): Cyfip^85.1/+ flies fed 5 days, GABA 50 μM, DABA 100 μM, VPA 1 mM
Procedure: (§1) Experiments were performed with socially experienced, 3-7 days-old male flies. Groups of eight males from the same genotype were anesthetized 24 h prior to the assay and placed in vials with food. On the day of the assay, the males were transferred without anesthesia to an empty vial and were deprived of food for 90 minutes, after which they were exposed to a food droplet and given 2 minutes to acclimate to this disturbance. The flies were then observed simultaneously for an additional 2 minutes, and the total number of social events was scored. Monitored social events were i.e. approaches, lunges, tussles, wing threat and the initiation of courtship. Of note, one interaction involving two or more flies was counted as one social event in total (Zwarts (2011), PNAS 108, 17070-17075. The behavioral assays were conducted in a behavioral chamber (25° C., 60-70% humidity) between 8 a.m. and 11 a.m. Statistics were calculated using a one-way fixed effect ANOVA model, and Kruskal Wallis test in combination with Dunn's multiple comparison test.
(§2) Example 8. GABA augmentation fully normalizes the behavioral abnormalities of Cyfip^85.1/+ flies. GABA levels were augmented in Cyfip^85.1/+ flies in three distinct ways: flies were fed either GABA, DL-2,4-diaminobutyric acid (DABA) which is a GABA-transaminase inhibitor and/or a GABA reuptake inhibitor or the anticonvulsant valproic acid (VPA) which induces GABA release (Chateauvieux (2010), Journal of biomedicine & biotechnology 2010; Coghlan (2012), Neurosci Biobehav Rev 36, 2044-2055; Reynolds (2007), Current medicinal chemistry 14, 2799-2812). All compounds were purchased from Sigma-Aldrich and were used as described before (Kanellopoulos (2012), J Neurosci. 32(38):13111-24; Zwarts (2011), PNAS 108, 17070-17075). In brief, the drugs were dissolved as per the manufacturer's instructions and used at the following concentrations: GABA at 50 μM, DABA 100 μM, Valproic acid (VPA) at 1 mM and Diazepam at 50 μM. Compounds in solution were mixed with Formula 4-24® Instant Drosophila Medium (blue food) in water. Approximately 50-60 adult flies were placed in plastic vials containing 500 μl of each solution on top of an agar matrix and allowed to feed ad libitum before behaviour analysis. Vehicle treatment consisted of solvent added to blue food alone.
Example 16. Drug screening to identify compounds that ameliorate social behavior deficits in flies with Cyfip haploinsufficiency. Control (w1118) or CYFIP (Cyfip^85.1/+) flies were treated, i.e. fed, with various compounds from the Prestwick Chemical Library® as described in Examples 8 and 15. All compounds were used at a concentration of 50 μM. The total number of social interactions was analyzed in a competition for food assay at various time-points (1, 2 or 5 days) of treatment with the compound or vehicle controls as described in Example 2.

wild type flies = test: competition for food assay (total number of social events) in wild type (control) flies; assay type: in vivo, Drosophila
Procedure: as §1, §2

[2] = tested on: flies with GABAergic-specific or pan-neuronal Cyfip abrogation; test: competition for food assay (social interactions) in flies with Cyfip abrogation (UAS-Cyfip-IR); assay type: in vivo, Drosophila; conditions: for social interactions: flies with GABAergic-specific Cyfip abrogation, GABA, DABA or VPA in food
Description: To control Cyfip expression, the tissue specific GAL4/UAS system was employed (Brand and Perrimon, 1993). […] Specifically, the UAS-Cyfip-RNAi transgene (UAS-Cyfip-IR) was used to abrogate Cyfip expression as described in Galy et al., 2011. To generate GAL4/UAS-Cyfip-IR flies, GAL4/GAL4 females were crossed en masse to UAS-Cyfip-IR/UAS-Cyfip-IR males. The GAL4 drivers are described in Kanellopoulos (2012), J Neurosci. 32(38):13111-24. GAL4 and UAS lines have been isogenized for 6 generations with the w1118 background before crossing. GAL4/GAL4 and UAS-Cyfip-IR/UAS-Cyfip-IR females were also crossed with w^1118 males to generate GAL4/+ and UAS-Cyfip-IR/+ progeny respectively that served as controls which should not produce the RNAi construct.
Tissue-specific GAL4 expression was achieved using the tissue-specific GAL4 promoters as follows: pan-neuronal (Elav), in cholinergic (Cha-Gla4), and GABAergic (Gad-Gal4). To avoid neurodevelopmental problems and possible lethality, the ElavGal4, was combined with the temporal TubGal80^ts system (McGuire et al., 2003; McGuire et al., 2004). At 18° C., TubGal80^ts is expressed and binds GAL4, prohibiting its binding to the UAS (i.e., no transcription of UAS-Cyfip-IR). In contrast, at 29-30° C. TubGal80^ts is degraded and will release GAL4 which in turn will bind the UAS thus activating transcription of UAS-Cyfip-IR. […] All flies/progeny for promoter-Gal4;TubGal80^ts and their controls were cultured at 18° C. and 2-days after eclosion were placed at 29-30° C. allowing UAS-Cyfip-IR transcription.
as §1
Example 8. GABA augmentation fully normalizes the behavioral abnormalities of Cyfip^85.1/+ flies. […]

[3] = tested on: mitochondrial membrane potential; conditions: literature statement; cited from earlier work
GABA release = conditions: literature statement (Amoroso 1990); cited from earlier work
[4] = tested on: mitochondrial membrane potential; test: mitochondrial membrane potential by TMRE staining of fly brains; assay type: in vivo, Drosophila; conditions: wild type flies; oligomycin 500 μM in the food
Procedure: Briefly, for the TMRE (Enzo) and Rhodamine 123 (Sigma-Aldrich) stainings, brains were dissected in HL3 solution (mM): 110 NaCl, 5 KCl, 10 NaHCO3, 5 Hepes, 30 sucrose, 5 trehalose, and 10 MgCl2, pH 7.2. Dissected brains were stained with 10 nM TMRE or Rhodamine123 dye for 5 minutes at room temperature. Brains were quickly washed with HL3 solution, mounted on glass slides and imaged immediately with confocal microscope Leica SP8 using the same settings for all the samples.
(§3) Since Aralar needs a proton for import of its substrate (i.e. GABA) into mitochondria, the equilibrium distribution of the transport substrates is set by the pH gradient across the mitochondrial membrane, which in turn is a function of fuel availability, oxidative phosphorylation and activity of the TCA cycle.

GABA = GABA levels by ELISA after fractionation of fly brains; assay type: in vivo, Drosophila; conditions: wild type flies; oligomycin 500 μM in the food
Procedure: Finally, GABA levels were measured by ELISA (GABA ELISA Enzyme immunoassay (IBL, ID59301) following a fractionation to enrich for mitochondria or synaptic vesicles (Depner (2014), Nat Protoc 9, 2796-2808). In brief, total brain lysates, isolated mitochondria and vesicles were used for GABA derivatization. The samples were incubated with a polyclonal antibody against GABA-derivative, together with assay reagent containing the GABA-derivative (tracer). The concentration of antibody-bound tracer is inverse proportional to the GABA concentration in the sample. Peroxidase conjugate was added detect the tracer and tetramethylbenzidine (TMB) served as a peroxidase substrate. The absorbance was measured in a microplate photometer at 450 nm.
as §3

Cyfip^85.1/+ flies [5] = test: Drosophila locomotor activity (DAM system); assay type: in vivo; conditions: 10 μM rotenone for 4 days
Procedure: The Drosophila Activity Monitoring (DAM) system from Trikinetics Inc. (Walthman, MA) was used to record the locomotor activity of flies. Male flies (1-week old), anesthetised on ice, were individually loaded into the locomotor activity-monitoring tubes, thin 5 mm diameter polycarbonate tubes containing 5% sucrose and 2% agar food and incubated for at least 4 days under 12:12 LD (light-dark) conditions at 25° C. and 50-60% humidity. Light was turned on at 7:30 am and turned off at 7:30 pm. The DAM system software counts the number of times the single fly walks through an infrared beam aimed at the middle of the tube. Data were recorded as the number of crossings (transitions) per bin of 5-30 minutes. To allow the flies to recover from anaesthesia and to get acclimatized to the new environment data from the first day was excluded from the analysis. Two independent experiments were performed and at least 40 flies for each genotype were analysed. Statistical analysis was conducted using GraphPad Prism 6.0 software. Data were evaluated by one-way analysis of variance (ANOVA) with Sidak's post hoc test and by non-parametric Kruskal-Wallis's test with Dunn's correction.

For “4-formyl-5-hydroxy-6-methylpyridin-3 yl) methyl dihydrogen phosphate [pyridoxal 5′-phosphate hydrate]”, the “number of social events” value (Cyfip^85.1/+ flies [1]; Cyfip^85.1/+ flies) was “rescues the deficits in social behavior”, the “number of social events” value (Cyfip^85.1/+ flies [1]; Cyfip^85.1/+ flies, listed as PLP) was “increased the number of social events to the level observed for normal wild type flies” and the “number of social events” value (wild type flies; wild type flies, 1 mM in the food, 2 days) was “reduced the number of social events”.

For `NCCC(N)C(=O)O` (racemic) [DABA, DL-2,4-diaminobutyric acid], the “social behavior deficit (social events)” value (Cyfip^85.1/+ flies [1]) was “ameliorated the social behavior deficit” and the social interactions [2] was “restored the social interactions”.

In the case of `CC(=O)c1ccc(S(=O)(=O)NC(=O)NC2CCCCC2)cc1` [Acetohexamide, 4-Acetyl-N-[(cyclohexylamino)carbonyl]benzenesulfonamide], the mitochondrial membrane potential [3] is listed as “decrease the mitochondrial membrane potential” and the GABA release (GABA release) is listed as “indirectly increase GABA release”.

In the case of `O=C1CCc2ccc(OCCCCN3CCN(c4cccc(Cl)c4Cl)CC3)cc2N1` [Aripiprazole, 7-[4-[4-(2,3-dichlorophenyl)piperazin-1-yl]butoxy]-3,4-dihydro-1H-quinolin-2-one], the mitochondrial membrane potential [3] is listed as “decreases the mitochondrial membrane potential”.

For `CCCNC(=O)NS(=O)(=O)c1ccc(Cl)cc1` [Chlorpropamide, (1-[p-Chlorobenzenesulfony1]-3-propylurea)], the mitochondrial membrane potential [3] is given as “decrease the mitochondrial membrane potential” and the GABA release (GABA release) is given as “indirectly increase GABA release”.

With `NCCCC(=O)O` [GABA, gamma-Aminobutyric acid] the “social behavior deficit (social events)” value (Cyfip^85.1/+ flies [1]) was “ameliorated the social behavior deficit”, the “duration of the effect post treatment (competition for food)” value (Cyfip^85.1/+ flies [1]; Cyfip^85.1/+ flies treated 5 days with GABA, tested post treatment) was 2 days and the social interaction (wild type flies; adult wild-type flies, high GABA diet, 5 days) was “decreased social interaction”. The “behavioral deficits (social interactions)” value ([2]; adult pan-neuronal Cyfip abrogation, GABA feeding 5 days) was “rescued behavioral deficits” and the social interactions [2] was “restored the social interactions”.

With `Cc1ccccc1C(C(=O)NC1CCCC1)N(C(=O)Cn1cnc2ccccc21)c1cccc(F)c1` (stereo not drawn) [ML309, 2-(N-[2-(benzimidazol-1-yl)acetyl]-3-fluoroanilino)-N-cyclopentyl-2-(2-methylphenyl)acetamide] the “abnormal social feeding behavior (social events, competition for food)” value (Cyfip^85.1/+ flies [1]; Cyfip^85.1/+ flies, ML309 with the food at 50 µM, 1 or 3 days) was “ameliorated the abnormal social feeding behavior”.

In the case of `COc1ccc(CN2CCNCC2)c(OC)c1OC.Cl.Cl` [Trimetazidine dihydrochloride, 1-[(2,3,4-trimethoxyphenyl)methyl]piperazine dihydrochloride], the mitochondrial membrane potential [3] is given as “balances the mitochondrial membrane potential”.

With `CCCC(CCC)C(=O)O` [VPA, valproic acid] the “social behavior deficit (social events)” value (Cyfip^85.1/+ flies [1]) was “ameliorated the social behavior deficit” and the social interactions [2] was “restored the social interactions”.

In the case of `CC[C@H]1/C=C/C=C/C[C@@H](C)[C@H](O)[C@@](C)(O)C(=O)[C@@H](C)[C@H](O)[C@@H](C)C(=O)[C@@H](C)[C@H](O)[C@@H](C)/C=C/C(=O)O[C@@H]2[C@H](C)[C@H](CC1)O[C@]1(CC[C@H](C)[C@H](C[C@@H](C)O)O1)[C@H]2C` [oligomycin], the competition for food (wild type flies; wild type flies, oligomycin 500 μM in the food, 1 day) was “decreased”, the “mitochondrial membrane potential (TMRE staining)” value [4] was “increasing mitochondrial membrane potential” and the “level of available GABA in the cytosol (ELISA)” value (GABA) was “decreased”.

For `C=C(C)[C@H]1Cc2c(ccc3c2O[C@@H]2COc4cc(OC)c(OC)cc4[C@@H]2C3=O)O1` [rotenone], the “reversibility of the effect of treatment on social behavior” value (Cyfip^85.1/+ flies [1]; Cyfip^85.1/+ flies treated 4 days with rotenone, tested for 5 days post-treatment) was “reversible”, the “social deficits (competition for food)” value (Cyfip^85.1/+ flies [1]; Cyfip^85.1/+ flies, rotenone 1-10 μM in the food, 4 days) was “ameliorate social deficits” and the “behavior of wild type flies (competition for food)” value (wild type flies; wild type flies, rotenone 1-10 μM in the food, 4 days) was “no effect”. The “hyperactivity (locomotion over 24 hours)” value (Cyfip^85.1/+ flies [5]) was “did not restore the hyperactivity” and the “hyperactivity (locomotion over 24 hours)” value (Cyfip^85.1/+ flies [5]; listed as Rotenone) was “does not rescue hyperactivity”.
